From patent US20140314740A1, “COMPOSITIONS AND METHODS FOR THE PREVENTION OR TREATMENT OF DIABETIC COMPLICATIONS” (The Johns Hopkins University, priority 2011, published 2014)
“Also recorded” adds a separate entry of the source.

Legend:
superoxide radicals = experiment: Superoxide radical assay (hydroethidine-induced fluorescence) in retinal homogenates of diabetic mice; assay type: in vivo, C57BL/6 mice; details: 1 month of diabetes; 1,9-dideoxyforskolin 0.1 mg/kg daily
Method: Superoxide radicals were measured in retinal homogenates by measuring dihydroethidine-induced fluorescence (Georgiou et al., 2008; Chen et al., 2009). Briefly, 200 μl reaction mixtures of freshly prepared retinal homogenates (20 μg protein) containing 2.5 μM dihydroethidium and 0.05 μg/μl salmon testes DNA were placed in 96-well microplates at 37° C. for 30 min. The fluorescence was measured at an excitation of 480 nm and an emission of 610 nm. Each sample was assayed in triplicate.

GLUT1 [1] = target: T1, GLUT1 (Homo sapiens, UniProt P11166); details: literature statement; cited from earlier work
T1 sequence (P11166 1-492): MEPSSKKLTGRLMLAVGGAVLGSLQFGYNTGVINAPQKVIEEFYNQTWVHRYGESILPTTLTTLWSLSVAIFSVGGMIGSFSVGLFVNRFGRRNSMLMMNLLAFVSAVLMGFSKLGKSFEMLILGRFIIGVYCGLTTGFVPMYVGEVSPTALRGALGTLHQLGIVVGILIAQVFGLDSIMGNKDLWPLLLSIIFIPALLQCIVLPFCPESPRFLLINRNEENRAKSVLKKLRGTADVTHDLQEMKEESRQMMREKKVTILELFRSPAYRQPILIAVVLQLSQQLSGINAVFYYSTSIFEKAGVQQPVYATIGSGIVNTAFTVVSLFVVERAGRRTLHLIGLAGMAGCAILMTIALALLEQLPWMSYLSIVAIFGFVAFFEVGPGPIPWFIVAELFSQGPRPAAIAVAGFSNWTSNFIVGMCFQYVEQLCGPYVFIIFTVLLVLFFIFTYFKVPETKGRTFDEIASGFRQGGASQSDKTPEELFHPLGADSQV

adenylate cyclase = details: literature statement; cited from earlier work
GLUT1 [2] = target: T1, GLUT1; details: literature statement; cited from earlier work; remark: listed apart in the source
GLUT1 [3] = target: T2, GLUT1 (Mus musculus, UniProt P17809); experiment: Glucose measurements in retina, brain and red blood cells (RBC) of streptozotocin-diabetic mice; assay type: in vivo, C57BL/6 mice; details: for retinal glucose levels: diabetic mice; for retinal glucose (summary statement): systemic treatment of diabetic mice, dose not given
T2 sequence (P17809 1-492): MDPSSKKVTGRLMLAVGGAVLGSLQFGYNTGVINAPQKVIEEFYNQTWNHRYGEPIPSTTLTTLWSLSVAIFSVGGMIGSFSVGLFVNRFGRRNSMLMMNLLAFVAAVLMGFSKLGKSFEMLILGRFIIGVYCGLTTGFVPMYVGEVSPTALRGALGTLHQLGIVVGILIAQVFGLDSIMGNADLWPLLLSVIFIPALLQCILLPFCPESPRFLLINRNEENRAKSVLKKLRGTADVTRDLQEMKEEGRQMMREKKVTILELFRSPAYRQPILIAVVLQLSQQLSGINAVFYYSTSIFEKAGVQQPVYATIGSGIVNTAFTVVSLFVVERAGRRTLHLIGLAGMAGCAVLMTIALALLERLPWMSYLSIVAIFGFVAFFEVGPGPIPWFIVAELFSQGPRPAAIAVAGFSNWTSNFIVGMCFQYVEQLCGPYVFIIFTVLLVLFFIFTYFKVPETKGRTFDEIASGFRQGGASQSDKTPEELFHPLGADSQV

tyrosine kinases = details: literature statement; by blocking the ATP binding site; cited from earlier work
[4] = mice diabetic 2 months, 1,9-dideoxyforskolin 1 mg/kg daily IP, 5 hr after last dose, vs untreated diabetics

For `C=C[C@@]1(C)CC(=O)[C@@H]2[C@@]3(C)CCCC(C)(C)[C@@H]3[C@H](O)[C@H](OC(C)=O)[C@@]2(C)O1` [1,9-dideoxyforskolin], the “increase of superoxide radicals (hydroethidine-induced fluorescence) in retinal homogenates” value (superoxide radicals) is given as “significantly blocked”, the GLUT1 glucose transport (GLUT1 [1]) is given as “blocks GLUT1-mediated glucose transport” and the adenylate cyclase stimulation (adenylate cyclase) is given as “lacks adenylate cyclase-stimulating activity”. The “binding to GLUT1” value (GLUT1 [2]) was “binds GLUT1”, the retinal glucose levels (GLUT1 [3]; 1,9-dideoxyforskolin 0.1 mg/kg/day IP, 2 or 4 weeks, vs untreated diabetics) was “significantly reduced retinal glucose levels; also recorded: significant reduction in retinal glucose level” and the “glucose levels in RBCs” value (GLUT1 [3]; [4]) was “significant reduction; also recorded: decreased glucose levels”. The “glucose levels in brain” value (GLUT1 [3]; [4]) was “not in brain; also recorded: did not effect glucose levels”, the “glucose levels in retina” value (GLUT1 [3]; [4]) was “significant reduction; also recorded: decreased glucose levels” and the “retinal glucose (summary statement)” value (GLUT1 [3]) was “equivalent effect to that of forskolin”.

In the case of `O=c1c(O)c(-c2cc(O)c(O)c(O)c2)oc2cc(O)cc(O)c12` [myricetin], the “binding to GLUT1” value (GLUT1 [2]) is given as “binds to the ATP binding site of GLUT1”.

In the case of `O=c1c(-c2ccc(O)cc2)coc2cc(O)cc(O)c12` [genistein], the GLUT1 glucose transport (GLUT1 [1]) is given as “suppresses glucose transport”, the tyrosine kinase inhibition (tyrosine kinases) is given as “inhibits tyrosine kinases” and the “binding to GLUT1” value (GLUT1 [2]) is given as “binds to the ATP binding site of GLUT1”. For the same compound, the retinal glucose levels (GLUT1 [3]; genistein 50 mg/kg/day IP, 4 weeks, vs untreated diabetics) was “significantly reduced retinal glucose levels; also recorded: significant reduction in retinal glucose level” and the “retinal glucose (summary statement)” value (GLUT1 [3]) was “significantly reduced retinal glucose to the same levels seen in non-diabetics”.
